The values that follow come from ChEMBL document CHEMBL1139108, “New thiopyrazolo[3,4-d]pyrimidine derivatives as anti-mycobacterial agents” (Bioorg Med Chem Lett, 2007).

The test system of data set [1] is Mycobacterium tuberculosis. Kind of data set: Antimycobacterial activity against Mycobacterium tuberculosis H37Rv. Type of data set: functional.
Data set [2] can be described thus: Cytotoxicity against human HepG2 cells. In kind it is cell-based. Particulars: read-out: TD50 (the source's name).

≈ marks a conversion by molar mass, not a printed value.

In turn, `c1ccc(CSc2ncnc3c2cnn3Cc2ccncc2)cc1` had an MIC in data set [1] of 16 µg/mL (≈ 48 µM).
On to `C=CCn1ncc2c(SCC#N)ncnc21`, for which the CC50 in data set [2] came to 4 µg/mL (≈ 17.3 µM). The compound further returned an MIC in data set [1] of 32 µg/mL (≈ 138 µM).
For `c1ccc(Cn2ncc3c(SCc4ccncc4)ncnc32)cc1`, it took 32 µg/mL (≈ 96 µM) to inhibit growth in data set [1] (MIC).
Same read-out and setting: as for `OCCSc1ncnc2c1cnn2Cc1ccccc1`, the figure is 63 µg/mL (≈ 220 µM); as for `C=CCSc1ncnc2c1cnn2Cc1ccncc1`, 63 µg/mL (≈ 222 µM).
`c1ccc(Cn2ncc3c(SCC4CC4)ncnc32)cc1` had an MIC in data set [1] of 16 µg/mL (≈ 54 µM).
Regarding `CCCn1ncc2c(SCc3ccccc3)ncnc21`, in data set [1], the MIC came out at 32 µg/mL (≈ 113 µM).
On the same count and under the same terms, as for `CCCSc1ncnc2[nH]ncc12`, the figure is 125 µg/mL (≈ 643 µM); as for `CCCSc1ncnc2c1cnn2Cc1ccccc1`, 16 µg/mL (≈ 56.3 µM).
In data set [1], `Clc1ccccc1Cn1ncc2c(SCc3ccccc3)ncnc21` showed an MIC of 16 µg/mL (≈ 43.6 µM).
For `Clc1ccccc1CSc1ncnc2[nH]ncc12`, in data set [1], the lowest concentration to inhibit growth (MIC) was 250 µg/mL (≈ 903 µM).
Same read-out and setting: as for `c1cc(CSc2ncnc3[nH]ncc23)ccn1`, the figure is 250 µg/mL (≈ 1030 µM); as for `N#CCn1ncc2c(SCc3ccccc3)ncnc21`, 32 µg/mL (≈ 114 µM).
The compound `OCCSc1ncnc2[nH]ncc12` displayed an MIC in data set [1] of 250 µg/mL (≈ 1270 µM).
In data set [1], `C=CCCSc1ncnc2c1cnn2Cc1cccnc1` returned an MIC of 32 µg/mL (≈ 108 µM).
Same read-out and setting: as for `C=CCn1ncc2c(SCc3cccnc3)ncnc21`, the figure is 250 µg/mL (≈ 882 µM); as for `N#CCSc1ncnc2[nH]ncc12`, 63 µg/mL (≈ 329 µM); as for `C=CCCSc1ncnc2c1cnn2Cc1ccc(Cl)cc1`, 125 µg/mL (≈ 378 µM).
Compound `C=CCn1ncc2c(SCc3ccccc3Cl)ncnc21` had an MIC in data set [1] of 32 µg/mL (≈ 101 µM).
The same measure, in the same setting: then `CC[C@@H](CO)NCCN[C@@H](CC)CO` [ETHAMBUTOL], with 2.5 µg/mL (≈ 12.2 µM).
The same measure, in the same setting: then `CO[C@H]1/C=C/O[C@@]2(C)Oc3c(C)c(O)c4c(O)c(c(/C=N/N5CCN(C)CC5)c(O)c4c3C2=O)NC(=O)/C(C)=C\C=C\[C@H](C)[C@H](O)[C@@H](C)[C@@H](O)[C@@H](C)[C@H](OC(C)=O)[C@@H]1C` [RIFAMPIN], with 0.016 µg/mL (≈ 0.0194 µM); and `C=CCSc1ncnc2c1cnn2CC1CC1`, with 32 µg/mL (≈ 130 µM).
Same read-out and setting: as for `c1ccc(CSc2ncnc3c2cnn3CC2CC2)cc1`, the figure is 250 µg/mL (≈ 843 µM).
As for `c1ccc(Cn2ncc3c(SCc4cccnc4)ncnc32)cc1`, the lowest concentration to inhibit growth in data set [1] (MIC) was 32 µg/mL (≈ 96 µM).
Regarding `N#CCSc1ncnc2c1cnn2CC#N`, in data set [1], the MIC is 8 µg/mL (≈ 34.7 µM).
With `c1ccc(CSc2ncnc3c2cnn3Cc2cccnc2)cc1`, the CC50 in data set [2] is above 40 µg/mL. Moreover, the MIC in data set [1] worked out at 8 µg/mL (≈ 24 µM).
In data set [1], `Clc1ccc(CSc2ncnc3[nH]ncc23)cc1` showed an MIC of 250 µg/mL (≈ 903 µM).
Same read-out and setting: then `C=CCn1ncc2c(SCCC)ncnc21`, with 63 µg/mL (≈ 269 µM); and `C=CCCSc1ncnc2c1cnn2CC#N`, with 63 µg/mL (≈ 257 µM); and `C#CCSc1ncnc2c1cnn2CC=C`, with 63 µg/mL (≈ 274 µM).
For `Clc1ccc(CSc2ncnc3c2cnn3Cc2ccccc2)cc1`, in data set [1], the MIC came out at 32 µg/mL (≈ 87.2 µM).
In data set [1], `c1ccc(CSc2ncnc3c2cnn3Cc2ccccc2)cc1` came in with an MIC of 16 µg/mL (≈ 48.1 µM).
Same read-out and setting: as for `OCCn1ncc2c(SCc3ccccc3)ncnc21`, the figure is 125 µg/mL (≈ 437 µM); as for `c1nc(SCC2CC2)c2cn[nH]c2n1`, 125 µg/mL (≈ 606 µM).
As for `C=CCn1ncc2c(SCc3ccc(Cl)cc3)ncnc21`, the CC50 in data set [2] was above 20 µg/mL. Also, it took 8 µg/mL (≈ 25.3 µM) to inhibit growth in data set [1] (MIC).
Regarding `NNC(=O)c1ccncc1` [ISONIAZID], the MIC in data set [1] was determined as 0.25 µg/mL (≈ 1.82 µM).
On the same count and under the same terms, as for `C=CCCSc1ncnc2[nH]ncc12`, the figure is 125 µg/mL (≈ 606 µM); as for `C=CCCn1ncc2c(SCc3ccccc3)ncnc21`, 16 µg/mL (≈ 54 µM).
On the same count and under the same terms, then `C=CCn1ncc2c(SCC3CC3)ncnc21`, with 125 µg/mL (≈ 507 µM); and `N#CCSc1ncnc2c1cnn2Cc1ccccc1`, with 32 µg/mL (≈ 114 µM).
On the same count and under the same terms, then `Clc1ccc(CSc2ncnc3c2cnn3Cc2ccc(Cl)cc2)cc1`, with 63 µg/mL (≈ 157 µM); and `N#CCSc1ncnc2c1cnn2Cc1ccc(Cl)cc1`, with 125 µg/mL (≈ 396 µM).
In data set [1], `C=CCCn1ncc2c(SCC=C)ncnc21` had an MIC of 63 µg/mL (≈ 256 µM).
Regarding `c1cncc(CSc2ncnc3[nH]ncc23)c1`, in data set [1], the MIC stood at 250 µg/mL (≈ 1030 µM).
`Clc1ccc(Cn2ncc3c(SCc4ccccc4)ncnc32)cc1`: the MIC in data set [1] worked out at 16 µg/mL (≈ 43.6 µM).
`C=CCSc1ncnc2c1cnn2CCC`: the minimum inhibitory concentration (MIC) in data set [1] amounted to 125 µg/mL (≈ 533 µM).
Compound `C#CCn1ncc2c(SCc3ccccc3)ncnc21` showed an MIC in data set [1] of 32 µg/mL (≈ 114 µM).
In the case of `N#CCn1ncc2c(SCc3ccc(Cl)cc3)ncnc21`, in data set [2], the CC50 is 2 µg/mL (≈ 6.33 µM). Further, in data set [1], the MIC was 8 µg/mL (≈ 25.3 µM).
Consider `C#CCn1ncc2c(SCC=C)ncnc21`, for which, in data set [1], it took 32 µg/mL (≈ 139 µM) to inhibit growth (MIC).
Same read-out and setting: as for `C=CCn1ncc2c(SCCO)ncnc21`, the figure is 250 µg/mL (≈ 1060 µM); as for `C=CCSc1ncnc2c1cnn2Cc1ccccc1`, 32 µg/mL (≈ 113 µM).
Compound `C=CCSc1ncnc2c1cnn2CCO` came in with an MIC in data set [1] of 250 µg/mL (≈ 1060 µM).
Regarding `C=CCSc1ncnc2c1cnn2Cc1ccc(Cl)cc1`, in data set [1], 16 µg/mL (≈ 50.5 µM) was the least that counted as inhibitory (MIC).
Same read-out and setting: as for `C#CCSc1ncnc2c1cnn2Cc1ccccc1`, the figure is 63 µg/mL (≈ 225 µM).
As to `Clc1ccc(CSc2ncnc3c2cnn3Cc2cccnc2)cc1`, the CC50 in data set [2] is above 40 µg/mL. The compound further displayed an MIC in data set [1] of 0.5 µg/mL (≈ 1.36 µM).
In data set [1], `Clc1ccccc1CSc1ncnc2c1cnn2Cc1ccccc1` returned an MIC of 250 µg/mL (≈ 681 µM).
In data set [1], `N#CCSc1ncnc2c1cnn2Cc1cccnc1` yielded an MIC of 63 µg/mL (≈ 223 µM).
In turn, `C=CCCSc1ncnc2c1cnn2CC=C` came in with an MIC in data set [1] of 32 µg/mL (≈ 130 µM).
On the same count and under the same terms, then `C=CCSc1ncnc2c1cnn2Cc1cccnc1`, with 63 µg/mL (≈ 222 µM); and `C=CCCSc1ncnc2c1cnn2Cc1ccccc1`, with 16 µg/mL (≈ 54 µM); and `C=CCSc1ncnc2[nH]ncc12`, with 250 µg/mL (≈ 1300 µM).
Same read-out and setting: then `C=CCn1ncc2c(SCc3ccncc3)ncnc21`, with 125 µg/mL (≈ 441 µM).
Still for that read-out and setting: then `C#CCSc1ncnc2c1cnn2CC#C`, with 63 µg/mL (≈ 276 µM); and `C=CCSc1ncnc2c1cnn2Cc1ccccc1Cl`, with 63 µg/mL (≈ 199 µM).
`c1ccc(CSc2ncnc3[nH]ncc23)cc1`: it took 250 µg/mL (≈ 1030 µM) to inhibit growth in data set [1] (MIC).
In data set [1], `C=CCSc1ncnc2c1cnn2CC#N` yielded an MIC of 16 µg/mL (≈ 69.2 µM).
On to `C=CCSc1ncnc2c1cnn2CC=C`, for which the MIC in data set [1] was determined as 125 µg/mL (≈ 538 µM).
`C=CCn1ncc2c(SCc3ccccc3)ncnc21` showed an MIC in data set [1] of 32 µg/mL (≈ 113 µM).
